From US20230312562A1, “TETRAHYDRO-3H-PYRAZOLO QUINOLONE AND TETRAHYDRO-3H-PYRROLO[3,2-F]QUINOLINE -CONTAINING COMPOUNDS AND USES THEREOF” (Purdue Research Foundation, priority 2020, published 2023)
Marks after values point to notes of the source that are not given here.

Legend:
TK-10 = assay: NCI-60 sulforhodamine B assay, TK-10; format: cell-based; conditions: Homo sapiens; TK-10, renal, 48 h
Method: (§1) Compounds HSD1787, 22, 23 and 27 were sent to the National Cancer Institute (NCI), Bethesda, Maryland (Drug Evaluation Branch), to evaluate the effects of compounds on the NCI-60 cell panel. According to the NCI protocol, the compounds were evaluated at five concentrations (10-fold dilutions) with the highest concentration being 100 μM and the incubation period was 48 h. A sulforhodamine B assay was used to assay the effects of the compounds on the cancer cells. […] The most sensitive cell lines (total growth inhibition, TGI, could be achieved with concentrations less than 1 μM of some of the compounds) were MDA-MB-435 (melanoma), SF-539 (glioma), A498 (renal), MDA-MB-468 (breast), OVCAR-3 (ovarian), NCI-H522 (non-small cell lung cancer). On the other hand, UACC-257 and SK-MEL-28 (both melanoma), TK-10 (renal), OVCAR-4 (ovarian) and T-47D (breast) were resistant to the compounds as 10 μM could not cause total growth inhibition (Table 2). […] This is in line with current appreciation that tumor mutational burden and not necessarily the anatomical origin of the tumor determines treatment strategies or outcomes.
(§2) According to the National Cancer Institute, Bethesda, Maryland (the protocol of the Drug Evaluation Branch), the effects of compounds are measured as follows: Cell suspensions are diluted to a target cell density of 5000-40,000 cells per well (based on cell growth characteristics) in a 96-well microtiter plates. The test compounds were evaluated at five concentrations (10-fold dilutions) with the highest concentration being 100 μM. The incubation period was 48 h under 5% carbon dioxide atmosphere and 100% humidity. A sulforhodamine B assay was used to assay the cells. Optical densities of the wells were read by a plate reader the optical densities were processed into GI50 (the concentration that causes 50% growth inhibition).
(§3) The NCI renamed the IC50 value, the concentration of compound that causes 50% growth inhibition, as follows:
(§4) The control is the well not treated with test agent (https://dtp.cancer.gov/databases_tools/docs/compare/compare_methodology.htm).

MDA-MB-435 = assay: NCI-60 sulforhodamine B assay, MDA-MB-435; format: cell-based; conditions: MDA-MB-435, melanoma, 48 h; for GI50: Homo sapiens
Method: as §1, §2, §3, §4

SR = assay: NCI-60 sulforhodamine B assay, SR; format: cell-based; conditions: Homo sapiens, lymphoma, 48 h
Method: as §1, §2, §3, §4

T-47D = assay: NCI-60 sulforhodamine B assay, T-47D; format: cell-based; conditions: Homo sapiens, T47D, breast, 48 h
Method: as §1, §2, §3, §4

MDA-MB-468 = assay: NCI-60 sulforhodamine B assay, MDA-MB-468; format: cell-based; conditions: MDA-MB-468, breast, 48 h; for GI50: Homo sapiens
Method: as §1, §2, §3, §4

MCF7 = assay: NCI-60 sulforhodamine B assay, MCF7; format: cell-based; conditions: MCF7, breast, 48 h; for GI50: Homo sapiens
Method: as §1, §2, §3, §4

SF-295 = assay: NCI-60 sulforhodamine B assay, SF-295; format: cell-based; conditions: SF-295, CNS, 48 h; for GI50: Homo sapiens
Method: as §1, §2, §3, §4

SF-539 = assay: NCI-60 sulforhodamine B assay, SF-539; format: cell-based; conditions: SF-539, CNS, 48 h; for GI50: Homo sapiens
Method: as §1, §2, §3, §4

Ovcar-4 = assay: NCI-60 sulforhodamine B assay, Ovcar-4; format: cell-based; conditions: Homo sapiens; Ovcar-4, ovarian, 48 h
Method: as §1, §2, §3, §4

NCI60 cell lines = assay: NCI-60 cell panel, summary statements; format: cell-based; conditions: melanoma, renal, breast, ovarian and leukemia cancer cell lines; read-out: GI50 values as low as
Method: as §1, §2, §3, §4

Ovcar-8 = assay: NCI-60 sulforhodamine B assay, Ovcar-8; format: cell-based; conditions: Homo sapiens; Ovcar-8, ovarian, 48 h
Method: as §1, §2, §3, §4

MDA-MB-231 = assay: Inhibition of MDA-MB-231 viability/growth at 1 μM, 72 h; format: cell-based; conditions: Homo sapiens, MDA-MB-231; 1 μM compound, 72 h incubation
SK-MEL-28 = assay: NCI-60 sulforhodamine B assay, SK-MEL-28; format: cell-based; conditions: Homo sapiens; SK-MEL-28, melanoma, 48 h
Method: as §1, §2, §3, §4

UACC-257 = assay: NCI-60 sulforhodamine B assay, UACC-257; format: cell-based; conditions: Homo sapiens; UACC-257, melanoma, 48 h
Method: as §1, §2, §3, §4

K-562 = assay: NCI-60 sulforhodamine B assay, K-562; format: cell-based; conditions: Homo sapiens, K562; K-562, leukemia, 48 h
Method: as §1, §2, §3, §4

Ovcar-3 = assay: NCI-60 sulforhodamine B assay, Ovcar-3; format: cell-based; conditions: Ovcar-3, ovarian, 48 h; for GI50: Homo sapiens
Method: as §1, §2, §3, §4

NCI-H522 = assay: NCI-60 sulforhodamine B assay, NCI-H522; format: cell-based; conditions: NCI-H522, non-small cell lung, 48 h; for GI50: Homo sapiens
Method: as §1, §2, §3, §4

NCI/ADR-RES = assay: NCI-60 sulforhodamine B assay, NCI/ADR-RES; format: cell-based; conditions: ovarian, 48 h; for GI50: Homo sapiens
Method: as §1, §2, §3, §4

A498 = assay: NCI-60 sulforhodamine B assay, A498; format: cell-based; conditions: A498, renal, 48 h; for GI50: Homo sapiens
Method: as §1, §2, §3, §4

tubulin = assay: Inhibition of tubulin polymerization; format: biochemical; conditions: at 10 μM; similar to inhibition by colchicine

| SMILES | GI50 (TK-10) [nM] | GI50 (MDA-MB-435) [nM] | GI50 (SR) [nM] | GI50 (T-47D) [nM] | GI50 (MDA-MB-468) [nM] | GI50 (MCF7) [nM] | GI50 (SF-295) [nM] | GI50 (SF-539) [nM] | TGI (total growth inhibition) (SF-539) | GI50 (Ovcar-4) [nM] | GI50 (Ovcar-8) [nM] | inhibition at 1 µM (MDA-MB-231) [%] | GI50 (SK-MEL-28) [nM] | GI50 (UACC-257) [nM] | GI50 (K-562) [nM] | GI50 (Ovcar-3) [nM] | GI50 (NCI-H522) [nM] | TGI (total growth inhibition) (NCI-H522) | GI50 (NCI/ADR-RES) [nM] | TGI (total growth inhibition) (NCI/ADR-RES) [nM] | further results |
| --- | --- | --- | --- | --- | --- | --- | --- | --- | --- | --- | --- | --- | --- | --- | --- | --- | --- | --- | --- | --- | --- |
| Nc1n[nH]c2cc(F)c([C@@H]3Nc4ccc5[nH]ncc5c4[C@H]4[C@@H]5CC[C@@H](C5)[C@H]43)cc12 (stereo in doubt) [Compound 27, 6-Fluoro-5-(6,7,7a,8,9,10,11,11a-octahydro-3H-8,11-methanopyrazolo[4,3-a]phenanthridin-7-yl)-1H-indazol-3-amine] | 2020 | 94.3 | 59.8 | > 10000 | 133 | 137 | 139 | 114 | 0.304^d μM | 416 | 194 | ~100 | 352 | 2700 | 92.2 | 138 | 109 | 0.544^d μM | 177 | 1210 | TGI (total growth inhibition) (MDA-MB-435): 0.283^d μM; TGI (total growth inhibition) (MDA-MB-468): 0.424^d μM; TGI (total growth inhibition) (MCF7): 8440 nM; TGI (total growth inhibition) (SF-295): 5770 nM; GI50 (NCI60 cell lines): ≥ 30 nM; TGI (total growth inhibition) (A498): 0.280^d μM; GI50 (A498): 71.4 nM |
| Nc1n[nH]c2cc(F)c([C@@H]3Nc4c(F)cc5[nH]ncc5c4[C@H]4[C@@H]5CC[C@@H](C5)[C@H]43)cc12 (stereo in doubt) [Compound 23, 6-Fluoro-5-(5-fluoro-6,7,7a,8,9,10,11,11a-octahydro-3H-8,11-methanopyrazolo[4,3-a]phenanthridin-7-yl)-1H-indazol-3-amine] | 5720 | 84.6 | 131 | > 10000 | 86.5 | 131 | 91.5 | 85.2 | 0.270 µM | 1170 | 142 |  | 3680 | 5660 | 110 | 103 | 105 | 6.60 µM | 150 | 5810 | TGI (total growth inhibition) (MDA-MB-435): 0.231 µM; TGI (total growth inhibition) (MCF7): 8330 nM; TGI (total growth inhibition) (SF-295): 3990 nM; GI50 (NCI60 cell lines): ≥ 30 nM; TGI (total growth inhibition) (Ovcar-3): 4100 nM; TGI (total growth inhibition) (A498): 0.2 µM; GI50 (A498): 69 nM |
| Nc1n[nH]c2ccc([C@@H]3Nc4ccc5[nH]ncc5c4[C@H]4C5CC[C@@H](C5)[C@@H]34)cc12 (stereo in doubt) [HSD1787, 5-(6,7,7a,8,9,10,11,11a-Octahydro-3H-8,11-methanopyrazolo[4,3-a]phenanthridin-7-yl)-1H-indazol-3-amine] | 3860 | 124 | 233 | > 10000 | 269 | 375 | 340 | 232 | 0.654 µM | 2140 | 479 | 95 | 934 | > 10000 | 264 | 243 | 210 | 0.868 µM | 480 | > 10000 | TGI (total growth inhibition) (MDA-MB-435): 0.329 µM; Inhibition of the polymerization of tubulin (tubulin): inhibited the polymerization of tubulin; TGI (total growth inhibition) (MDA-MB-468): 2.73 µM; TGI (total growth inhibition) (Ovcar-3): 634 nM; TGI (total growth inhibition) (A498): 0.646 µM; GI50 (A498): 179 nM |
| Nc1n[nH]c2ccc([C@@H]3Nc4c(F)cc5[nH]ncc5c4[C@H]4[C@@H]5CC[C@@H](C5)[C@H]43)cc12 (stereo in doubt) [Compound 22, 5-(5-fluoro-6,7,7a,8,9,10,11,11a-octahydro-3H-8,11-methanopyrazolo[4,3-a]phenanthridin-7-yl)-1H-indazol-3-amine] | 10700 | 34.8 | 87.7 | > 10000 | 78.8 | 61.6 | 50 | 167 | 0.590 µM | 3340 | 448 | 79 | 1400 | 5010 | 47.7 | 220 | 115 | 1.92 µM | 198 | 921 | TGI (total growth inhibition) (MDA-MB-468): 0.468 µM; GI50 (NCI60 cell lines): ≥ 30 nM; TGI (total growth inhibition) (Ovcar-3): 806 nM; TGI (total growth inhibition) (A498): 0.636 µM; GI50 (A498): 72.2 nM |
| Oc1ccc([C@@H]2Nc3ccc4[nH]ncc4c3[C@H]3C4CC[C@@H](C4)[C@@H]23)c(F)c1 (stereo in doubt) [Compound 14, 3-Fluoro-4-(6,7,7a,8,9,10,11,11a-octahydro-3H-8,11-methanopyrazolo[4,3-a]phenanthridin-7-yl)phenol] |  |  |  |  |  |  |  |  |  |  |  | 11 |  |  |  |  |  |  |  |  |  |
